Measured values: patent US20190367516A1 (Bayer Pharma Aktiengesellschaft, priority 2015, published 2019)
Read-outs that look alike come from different tables or passages of the source.

Assays:
human M2 receptor [1] = target: T1, human M2 receptor (Homo sapiens, UniProt P08172); assay type: cell-based; conditions: α >1 = positive cooperativity
T1 sequence (P08172 1-466): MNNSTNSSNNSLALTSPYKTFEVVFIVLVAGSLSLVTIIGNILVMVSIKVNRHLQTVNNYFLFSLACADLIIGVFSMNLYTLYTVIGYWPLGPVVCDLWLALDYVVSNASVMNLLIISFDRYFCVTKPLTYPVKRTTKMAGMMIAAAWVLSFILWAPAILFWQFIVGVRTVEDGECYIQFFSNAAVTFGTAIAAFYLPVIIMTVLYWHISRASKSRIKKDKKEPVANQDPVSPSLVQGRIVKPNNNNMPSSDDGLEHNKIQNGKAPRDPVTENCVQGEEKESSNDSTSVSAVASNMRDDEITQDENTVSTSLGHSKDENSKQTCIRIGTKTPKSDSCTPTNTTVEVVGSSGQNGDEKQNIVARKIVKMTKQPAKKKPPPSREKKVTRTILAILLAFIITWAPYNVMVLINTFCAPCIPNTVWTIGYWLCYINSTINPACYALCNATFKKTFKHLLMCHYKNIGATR

human M2 receptor [2] = target: T1, human M2 receptor; conditions: for Emax: read-out: Efficiency, boosting of the acetylcholine effect at EC20 acetylcholine concentration
[3] = shift in the acetylcholine dose-response curve (Allosteric EC50 shift, GraphPad PRISM)
[4] = Receptor activity EC50, M2-GIRK1/4 activation test, acetylcholine at EC20, allosteric potency, in some cases mean values from two or more determinations
[5] = shift of acetylcholine dose-response curve (Allosteric EC50 shift)
[6] = Receptor activity EC50, allosteric potency at EC20 acetylcholine, M2-GIRK1/4 reporter cells, in some cases mean of two or more determinations

SMILES	Cooperativity (alpha factor) (human M2 receptor [1]; [3])	EC50 (human M2 receptor [2]; [4])	Cooperativity (alpha factor) (human M2 receptor [1]; [5])	EC50 (human M2 receptor [2]; [6])	Emax (human M2 receptor [2]; M2-GIRK1/4 reporter cells)
O=C(NC1(C(F)(F)F)CCCC1)c1cn(-c2c(F)cc(F)cc2F)c2nc(N3C[C@@H](O)[C@H](O)C3)ccc2c1=O [Example 350, 7-[(3R,4R)-3,4-Dihydroxypyrrolidin-1-yl]-4-oxo-N-[1-(trifluoromethyl)cyclopentyl]-1-(2,4,6-trifluorophenyl)-1,4-dihydro-1,8-naphthyridine-3-carboxamide]	42	6 nM	–	–	–
O=C(NC12CC(C1)C2)c1cn(-c2c(F)cc(F)cc2Cl)c2nc(N3C[C@@H](O)CC3=O)ccc2c1=O [Example 396, N-(Bicyclo[1.1.1]pent-1-yl)-1-(2-chloro-4,6-difluorophenyl)-7-[(4S)-4-hydroxy-2-oxopyrrolidin-1-yl]-4-oxo-1,4-dihydro-1,8-naphthyridine-3-carboxamide]	–	–	29	17 nM	92%
CC[C@@H](NC(=O)c1cn(-c2ccc(F)cc2F)c2nc(N3CCC(C)(O)C3=O)ccc2c1=O)C(F)(F)F (mixture of isomers) [Example 194, 1-(2,4-Difluorophenyl)-7-[3-hydroxy-3-methyl-2-oxopyrrolidin-1-yl]-4-oxo-N-[(2R)-1,1,1-trifluorobutan-2-yl]-1,4-dihydro-1,8-naphthyridine-3-carboxamide]	16	140 nM	–	–	–
CC[C@@H](NC(=O)c1cn(-c2ccc(F)cc2F)c2nc(N3C[C@@H](F)C[C@H]3C)ccc2c1=O)C(F)(F)F [Example 31, 1-(2,4-Difluorophenyl)-7-[(2R,4S)-4-fluoro-2-methylpyrrolidin-1-yl]-4-oxo-N-[(2R)-1,1,1-trifluorobutan-2-yl]-1,4-dihydro-1,8-naphthyridine-3-carboxamide]	13	40 nM	–	–	–
CC(COC(F)(F)F)NC(=O)c1cn(-c2ccc(F)cc2F)c2nc(N3CC[C@H](F)C3)ccc2c1=O (single isomer, unassigned) [Example 228]	12	51 nM	–	–	–
CC(NC(=O)c1cn(-c2ccc(F)cc2F)c2nc(NCC(F)F)ccc2c1=O)C(F)(F)F (racemic) [Example 121, rac-7-[(2,2-Difluoroethyl)amino]-1-(2,4-difluorophenyl)-4-oxo-N-[1,1,1-trifluoropropan-2-yl]-1,4-dihydro-1,8-naphthyridine-3-carboxamide]	8	295 nM	–	–	–
O=C(NC(c1c(F)cccc1F)C(F)(F)F)c1cn(-c2ccc(F)cc2F)c2nc(N3CCCC(O)C3=O)ccc2c1=O (single isomer, unassigned) [Example 250, 1-(2,4-Difluorophenyl)-N-[1-(2,6-difluorophenyl)-2,2,2-trifluoroethyl]-7-[3-hydroxy-2-oxopiperidin-1-yl]-4-oxo-1,4-dihydro-1,8-naphthyridine-3-carboxamide]	27	101 nM	–	–	–
O=C(NC12CC(C1)C2)c1cn(-c2c(F)cc(F)cc2F)c2nc(N3C[C@@H](O)[C@H](O)C3)ccc2c1=O [Example 366, N-(Bicyclo[1.1.1]pent-1-yl)-7-[(3R,4R)-3,4-dihydroxypyrrolidin-1-yl]-4-oxo-1-(2,4,6-trifluorophenyl)-1,4-dihydro-1,8-naphthyridine-3-carboxamide]	36	35 nM	–	–	–
CC[C@@H](NC(=O)c1cn(-c2ccc(F)cc2F)c2nc(N3CC(C)CC3=O)ccc2c1=O)C(F)(F)F (mixture of isomers) [Example 301, 1-(2,4-Difluorophenyl)-7-[4-methyl-2-oxopyrrolidin-1-yl]-4-oxo-N-[(2R)-1,1,1-trifluorobutan-2-yl]-1,4-dihydro-1,8-naphthyridine-3-carboxamide]	12	30 nM	–	–	–

Other lines, results leading:

Cooperativity (alpha factor) (human M2 receptor [1]; [3])	EC50 (human M2 receptor [2]; [4])	Cooperativity (alpha factor) (human M2 receptor [1]; [5])	EC50 (human M2 receptor [2]; [6])	Emax (human M2 receptor [2]; M2-GIRK1/4 reporter cells)	SMILES
–	–	14	16 nM	94.5%	C[C@H](O)CN(C)c1ccc2c(=O)c(C(=O)N[C@@H](C3CC3)C(F)(F)F)cn(-c3c(F)cc(F)cc3F)c2n1 [Example 493]
26	44 nM	–	–	–	C[C@@H](COC(F)(F)F)NC(=O)c1cn(-c2c(F)cc(F)cc2F)c2nc(N3C[C@@H](O)CC3=O)ccc2c1=O [Example 339, 7-[(4S)-4-Hydroxy-2-oxopyrrolidin-1-yl]-4-oxo-N-[(2S)-1-(trifluoromethoxy)propan-2-yl]-1-(2,4,6-trifluorophenyl)-1,4-dihydro-1,8-naphthyridine-3-carboxamide]
–	–	29	9 nM	98.4%	C[C@@H]1CN(c2ccc3c(=O)c(C(=O)N[C@@H](C4CC4)C(F)(F)F)cn(-c4c(F)cc(F)cc4F)c3n2)C(=O)N1 [Example 437, N-[(1S)-1-Cyclopropyl-2,2,2-trifluoroethyl]-7-[(4R)-4-methyl-2-oxoimidazolidin-1-yl]-4-oxo-1-(2,4,6-trifluorophenyl)-1,4-dihydro-1,8-naphthyridine-3-carboxamide]
–	–	44	6 nM	99.5%	CCC(NC(=O)c1cn(-c2c(F)cc(F)cc2F)c2nc(N3C[C@@H](O)CC3=O)ccc2c1=O)C(C)C (mixture of isomers) [Example 484, 7-[(4S)-4-Hydroxy-2-oxopyrrolidin-1-yl]-N-[2-methylpentan-3-yl]-4-oxo-1-(2,4,6-trifluorophenyl)-1,4-dihydro-1,8-naphthyridine-3-carboxamide]
–	–	21	7 nM	86.5%	CCN1CCCN(c2ccc3c(=O)c(C(=O)N[C@@H](C4CC4)C(F)(F)F)cn(-c4c(F)cc(F)cc4F)c3n2)C1=O [Example 539, N-[(1S)-1-Cyclopropyl-2,2,2-trifluoroethyl]-7-(3-ethyl-2-oxotetrahydropyrimidin-1(2H)-yl)-4-oxo-1-(2,4,6-trifluorophenyl)-1,4-dihydro-1,8-naphthyridine-3-carboxamide]
36	6 nM	–	–	–	CC(C)(C)C(NC(=O)c1cn(-c2c(F)cc(F)cc2F)c2nc(N3CCNC3=O)ccc2c1=O)C(F)(F)F (stereo in doubt) [Example 360, 4-Oxo-7-(2-oxoimidazolidin-1-yl)-N-[(2S)-1,1,1-trifluoro-3,3-dimethylbutan-2-yl]-1-(2,4,6-trifluorophenyl)-1,4-dihydro-1,8-naphthyridine-3-carboxamide]
–	–	32	5 nM	100%	O=C(NC(CC(F)(F)F)C(F)(F)F)c1cn(-c2c(F)cc(F)cc2F)c2nc(N3C[C@@H](O)CC3=O)ccc2c1=O (single isomer, unassigned) [Example 607]
28	45 nM	–	–	–	O=C(N[C@@H](C1CC1)C(F)(F)F)c1cn(-c2c(F)cc(F)cc2F)c2nc(N3CCN(CCO)C3=O)ccc2c1=O [Example 363, N-[(1 S)-1-Cyclopropyl-2,2,2-trifluoroethyl]-7-[3-(2-hydroxyethyl)-2-oxoimidazolidin-1-yl]-4-oxo-1-(2,4,6-trifluorophenyl)-1,4-dihydro-1,8-naphthyridine-3-carboxamide]
–	–	28	8 nM	100%	CC(C)C[C@H](NC(=O)c1cn(-c2c(F)cc(F)cc2F)c2nc(N3CCNC3=O)ccc2c1=O)C(F)(F)F [Example 543, 4-Oxo-7-(2-oxoimidazolidin-1-yl)-N-[(2S)-1,1,1-trifluoro-4-methylpentan-2-yl)-1-(2,4,6-trifluorophenyl)-1,4-dihydro-1,8-naphthyridine-3-carboxamide]
